We go through 4 molecules from US11352551B2, “Proppant coatings containing antimicrobial agents” (Agienic, Inc., priority 2012, dated 2022).

The conditions of data set [1]: room temperature; cited from earlier work.
Data set [2] has as its system Desulfovibrio vulgaris (ATCC 29579). The data set can be described thus: Activity against sulfate reducing bacteria (3-tube most probable number method). The following applies: 10 ppm (copper or gluteraldehyde); one hour; start 2×10^7 mpn/ml; SRB2 media. Type of data set: cell-based.

As for `[Cu][Br]` [CuBr, Copper(I) bromide], in data set [1], the Water solubility was 0.011 mg/mL.

As for `[Cl][Cu][Cl]` [CuCl2, copper (II) chloride], the “log10 reduction of D. vulgaris” value in data set [2] was “less than 3 log10”.

Turning to `[Cl-].[Cl-].[Zn+2]` [ZnCl2, zinc chloride], in data set [1], the Water solubility is 4300 mg/mL.

As to `O=CCCCC=O` [gluteraldehyde], the “log10 reduction of D. vulgaris” value in data set [2] is reported as “greater than 4.23 log10”.
